Data as given in article PMC10779222, “Copper(II) Complexes with 1-(Isoquinolin-3-yl)heteroalkyl-2-ones: Synthesis, Structure and Evaluation of Anticancer, Antimicrobial and Antioxidant Potential” (International Journal of Molecular Sciences, 2023).

Tests used:
A375 (melanoma) = test: MTT cytotoxicity assay on A375 cells; format: cell-based, human; settings: 24 h incubation
Description: (§1) Cytotoxic activity of the investigated compounds was evaluated against T98G (glioblastoma), HepG2 (hepatoma), LS-180 (colon cancer) and A375 (melanoma) cell lines. Human normal skin fibroblasts, CCD-1059Sk (CRL-2072), were used as reference (non-cancerous) cells. All of the cell lines were obtained from American Type Culture Collection (ATCC; Manassas, VA, USA). A375, T98G and CCD-1059Sk cells were cultured in Dulbecco’s Modified Eagle’s Medium (DMEM) (Sigma Aldrich, St. Louis, MO, USA) supplemented with 10% FBS, penicillin (100 U/mL) and streptomycin (100 μg/mL). LS-180 and HepG2 cells were cultured in Eagle’s Minimum Essential Medium supplemented with 10% FBS, penicillin (100 U/mL) and streptomycin (100 μg/mL). All of the cells were maintained at 37 °C in a humidified atmosphere of 5% CO2. The compounds were dissolved in DMSO in order to obtain stock solutions. At the day of the experiment, the suspension of cells (1 × 10^5 cells/mL) was distributed onto 96-well plates at a volume of 100 μL/well. After attachment, the cells were treated with the increased concentrations of the tested compounds in medium containing 2% FBS and incubated for 24 h. Then, the medium was removed from wells, and cells were rinsed with PBS. Afterwards, 15 μL of MTT working solution (5 mg/mL in PBS) was added to each well, and the plates were incubated for 3 h. Subsequently, 100 μL of 10% SDS solution was added to each well in order to dissolve the precipitated formazan crystals. After overnight incubation at 37 °C, the absorbance of the obtained solution was measured at λ = 570 nm using a microplate reader (Epoch, BioTek Instruments, Inc., Winooski, VT, USA). At least two independent experiments were performed in triplicate. […] IC50 values of the investigated derivatives and positive control (etoposide) were calculated using the IC50 online calculator [101].

HepG2 (hepatoma) = test: MTT cytotoxicity assay on HepG2 cells; format: cell-based, human
Description: as §1

[1] = test system: Candida albicans ATCC 102231; test: Two-fold microdilution broth method, MIC; format: cell-based; settings: 35 °C, 24 h
Description: (§2) Antibacterial and antifungal activities of the free ligands L2, L3 and L4 and the corresponding copper(II) complexes C2, C3 and C4 were screened using the two-fold microdilution broth method. Minimal inhibitory concentrations (MICs) of tested compounds for the panel of reference Gram-positive bacteria, including Staphylococcus aureus ATCC 25923, Staphylococcus aureus ATCC BAA-1707, Staphylococcus epidermidis ATCC 12228, Micrococcus luteus ATCC 10240 and Bacillus cereus ATCC 10876; Gram-negative bacteria, including Salmonella Typhimurium ATCC 14028, Escherichia coli ATCC 25922, Proteus mirabilis ATCC 12453, Klebsiella pneumoniae ATCC 13883 and Pseudomonas aeruginosa ATCC 9027; and yeasts, including Candida albicans ATCC 102231, Candida parapsilosis ATCC 22019 and Candida glabrata ATCC 90030 were determined. The procedure has been described in detail before. Briefly, the solutions of tested compounds dissolved in dimethylosulfoxide (DMSO) were suspended in Mueller–Hinton broth for bacteria or Mueller–Hinton broth with 2% glucose for fungi. Then, the series of two-fold dilutions were carried out in the sterile Nunc™ MicroWell™ 96-Well Microplates (ThermoFisher Scientific Inc.), obtaining concentrations from 1000 to 7.8 mg/L in the appropriate medium. Simultaneously, the inocula of 24 h cultures of microorganisms in sterile physiological saline (0.5 McFarland standard density) were prepared and added to each well, obtaining final density of 5 × 10^5 CFU/mL for bacteria and 5 × 10^4 CFU/mL for yeasts. Proper positive (inoculum without tested compound) and negative (compound without inoculum) controls were added in each microplate. After incubation (35 °C, 24 h), the growth of microorganisms was measured spectrophotometrically at 600 nm (BioTEK ELx808, Bio-Tek Instruments, Inc., Winooski, VT, USA). MICs were marked at the lowest concentration of the compound without the growth of bacteria or fungi.

[2] = test system: Candida glabrata ATCC 90030; test: Two-fold microdilution broth method, MIC; format: cell-based; settings: 35 °C, 24 h
Description: as §2

[3] = test system: Candida parapsilosis ATCC 22019; test: Two-fold microdilution broth method, MIC; format: cell-based; settings: 35 °C, 24 h
Description: as §2

[4] = DPPH radical scavenging assay; settings: ±SD; 30 min, room temperature
Description: The DPPH radical scavenging assay of samples was performed with ascorbic acid as a positive control. Briefly, 100 μL of different concentrations of the complexes, dissolved in DMSO, was mixed with 100 μL of 0.06 mM DPPH methanolic solution and incubated at room temperature in the dark for 30 min. The change in absorbance at λ = 517 nm was analyzed with the use of a 96-well microplate reader (Epoch, BioTek System, Winooski, VT, USA). The control was composed of DPPH and DMSO. DPPH inhibition was calculated according to the following equation:DPPH Inhibition (%) = [(Acontrol − Asample)/Acontrol] × 100% The radical scavenging activity of the samples was shown as the IC50 value (the concentration of the analyzed samples that caused a decrease in the non-reduced form of the DPPH radical by 50%).

[5] = ABTS radical scavenging assay; settings: ±SD; 10 min, 30 °C
Description: The ABTS radical scavenging assay of samples (ligands or complexes) was performed with ascorbic acid as a positive control. Briefly, 30 μL of different concentrations of the samples, dissolved in DMSO, was mixed with 170 μL of ABTS solution (2 mM ABTS diammonium salt, 3.5 mM potassium persulfate) and completed with water to a final volume of 300 μL. ABTS solution with DMSO was used as a control. […] ABTS inhibition was calculated according to the following equation:ABTS Inhibition (%) = [(Acontrol − Asample)/Acontrol] × 100% The radical scavenging activity of the samples was shown as the IC50 value (the concentration of the analyzed samples that caused a decrease in the non-reduced form of the ABTS radical by 50%).

## O=C1NCCN1c1cc2ccccc2cn1.O=C1NCCN1c1cc2ccccc2cn1.[Cl][Cu][Cl] [C2, Dichloro{bis[1-(Isoquinolin-3-yl)imidazolidin-2-one]}copper(II)]
A375 (melanoma)
  IC50 ± SD, A375: 28.91 ± 1.79 µg/mL
HepG2 (hepatoma); HepG2 compared with CCD-1059-Sk
  selectivity index (SI), HepG2: 4.33
HepG2 (hepatoma); MTT assay
  highest concentration that did not affect the viability of HepG2 cells: 0.25 µg/mL
HepG2 (hepatoma); MTT, 24 h incubation
  IC50 ± SD, HepG2: 5.04 ± 0.42 µg/mL
[1]
  MIC, C. albicans ATCC 102231: 1000 mg/L
[2]
  MIC, C. glabrata ATCC 90030: >1000 mg/L
[3]
  MIC, C. parapsilosis ATCC 22019: 1000 mg/L
[4]
  IC50 DPPH: 401.52 ± 2.48 µg/mL
[5]
  IC50 ABTS: 107.14 ± 1.42 µg/mL
